Experimental findings from US12172995B2, “Substituted indole and indazole compounds” (BRISTOL-MYERS SQUIBB COMPANY, priority 2018, dated 2024) are described below.

Common to all, as to type: cell-based
One experiment has as its target T1, human TLR7 (Homo sapiens, UniProt Q9NYK1).
T1 construct: host or cells: HEK-Blue cells
T1 sequence (Q9NYK1 27-1049): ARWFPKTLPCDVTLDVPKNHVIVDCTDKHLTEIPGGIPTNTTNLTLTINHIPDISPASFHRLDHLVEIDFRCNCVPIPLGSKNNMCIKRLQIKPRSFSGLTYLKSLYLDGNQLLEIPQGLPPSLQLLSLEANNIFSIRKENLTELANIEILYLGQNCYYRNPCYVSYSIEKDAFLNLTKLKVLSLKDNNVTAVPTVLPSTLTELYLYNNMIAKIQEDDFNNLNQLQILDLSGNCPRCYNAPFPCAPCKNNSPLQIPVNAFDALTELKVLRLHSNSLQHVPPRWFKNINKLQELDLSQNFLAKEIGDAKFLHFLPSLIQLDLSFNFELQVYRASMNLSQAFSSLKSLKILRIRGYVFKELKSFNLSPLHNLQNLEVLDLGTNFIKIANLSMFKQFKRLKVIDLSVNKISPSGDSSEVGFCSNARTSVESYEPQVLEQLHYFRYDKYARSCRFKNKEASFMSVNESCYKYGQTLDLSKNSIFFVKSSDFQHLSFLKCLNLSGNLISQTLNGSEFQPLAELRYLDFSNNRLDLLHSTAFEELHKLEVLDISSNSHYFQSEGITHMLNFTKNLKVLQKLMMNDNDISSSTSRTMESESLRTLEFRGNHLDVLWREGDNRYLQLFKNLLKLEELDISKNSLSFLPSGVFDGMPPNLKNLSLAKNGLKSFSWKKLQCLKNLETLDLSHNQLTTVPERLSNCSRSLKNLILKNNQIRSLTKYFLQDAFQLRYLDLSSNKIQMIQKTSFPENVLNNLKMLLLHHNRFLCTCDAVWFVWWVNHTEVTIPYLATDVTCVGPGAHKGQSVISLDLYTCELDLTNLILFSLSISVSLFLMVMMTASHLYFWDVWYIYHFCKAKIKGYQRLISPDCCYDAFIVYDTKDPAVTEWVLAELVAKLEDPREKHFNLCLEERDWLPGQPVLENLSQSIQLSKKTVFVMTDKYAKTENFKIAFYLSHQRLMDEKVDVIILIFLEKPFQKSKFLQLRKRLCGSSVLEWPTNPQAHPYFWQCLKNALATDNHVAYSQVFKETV
The experiment can be described thus: TLR7 inhibition reporter assay (HEK-Blue SEAP). The note with it: HEK-Blue cells overexpressing human TLR7, stimulated with gardiquimod 7.5 μM, 22 hour incubation. The procedure, abridged:
(§1)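 Reporter HEK-Blue lines; cpd 0.05 nM–50 μM, 30 min preincubation RT; agonist: TLR7 gardiquimod 7.5 μM, TLR8 R848 15.9 μM, TLR9 ODN2006 5 nM; 22 h 37 °C; SEAP detected colorimetrically; % inhib vs known inhibitor.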
For orientation: In a reporter assay the amount or activity of a reporter protein is the signal.

The target in the next experiment is T2, human TLR8 (Homo sapiens, UniProt Q9NR97).
T2 construct: host or cells: HEK-Blue cells
T2 sequence (Q9NR97 27-1041): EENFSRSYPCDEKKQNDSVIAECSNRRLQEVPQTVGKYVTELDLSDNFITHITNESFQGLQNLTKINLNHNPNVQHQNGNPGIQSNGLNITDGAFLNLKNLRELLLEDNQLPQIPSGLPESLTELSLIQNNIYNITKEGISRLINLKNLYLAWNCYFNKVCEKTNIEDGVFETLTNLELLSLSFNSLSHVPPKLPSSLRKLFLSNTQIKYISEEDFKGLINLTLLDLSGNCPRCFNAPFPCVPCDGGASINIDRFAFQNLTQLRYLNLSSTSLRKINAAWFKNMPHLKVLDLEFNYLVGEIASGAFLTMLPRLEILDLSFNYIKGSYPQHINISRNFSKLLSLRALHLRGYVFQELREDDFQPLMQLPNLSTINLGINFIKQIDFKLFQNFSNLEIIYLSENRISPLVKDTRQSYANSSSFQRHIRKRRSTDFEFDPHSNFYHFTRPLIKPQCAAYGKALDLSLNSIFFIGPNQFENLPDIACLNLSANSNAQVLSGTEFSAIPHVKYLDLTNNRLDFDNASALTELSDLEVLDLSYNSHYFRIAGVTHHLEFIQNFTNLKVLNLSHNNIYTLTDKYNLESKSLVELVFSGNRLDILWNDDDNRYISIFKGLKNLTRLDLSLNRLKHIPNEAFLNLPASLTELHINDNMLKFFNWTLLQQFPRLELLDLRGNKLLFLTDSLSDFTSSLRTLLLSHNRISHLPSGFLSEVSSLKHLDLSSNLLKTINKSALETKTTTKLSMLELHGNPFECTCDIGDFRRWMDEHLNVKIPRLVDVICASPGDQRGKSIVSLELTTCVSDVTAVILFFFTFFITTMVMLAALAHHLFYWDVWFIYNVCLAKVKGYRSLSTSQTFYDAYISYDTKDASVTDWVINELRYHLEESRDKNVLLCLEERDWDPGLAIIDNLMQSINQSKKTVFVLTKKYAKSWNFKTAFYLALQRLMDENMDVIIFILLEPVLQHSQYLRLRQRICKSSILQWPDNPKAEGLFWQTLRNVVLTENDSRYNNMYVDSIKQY
The experiment can be described thus: TLR8 inhibition reporter assay (HEK-Blue SEAP). Particulars: HEK-Blue cells overexpressing human TLR8, stimulated with R848 15.9 μM, 22 hour incubation. The procedure, abridged:
as §1

In a further experiment the target is T3, human TLR9 (Homo sapiens, UniProt Q9NR96).
T3 construct: host or cells: HEK-Blue cells
T3 sequence (Q9NR96 26-1032): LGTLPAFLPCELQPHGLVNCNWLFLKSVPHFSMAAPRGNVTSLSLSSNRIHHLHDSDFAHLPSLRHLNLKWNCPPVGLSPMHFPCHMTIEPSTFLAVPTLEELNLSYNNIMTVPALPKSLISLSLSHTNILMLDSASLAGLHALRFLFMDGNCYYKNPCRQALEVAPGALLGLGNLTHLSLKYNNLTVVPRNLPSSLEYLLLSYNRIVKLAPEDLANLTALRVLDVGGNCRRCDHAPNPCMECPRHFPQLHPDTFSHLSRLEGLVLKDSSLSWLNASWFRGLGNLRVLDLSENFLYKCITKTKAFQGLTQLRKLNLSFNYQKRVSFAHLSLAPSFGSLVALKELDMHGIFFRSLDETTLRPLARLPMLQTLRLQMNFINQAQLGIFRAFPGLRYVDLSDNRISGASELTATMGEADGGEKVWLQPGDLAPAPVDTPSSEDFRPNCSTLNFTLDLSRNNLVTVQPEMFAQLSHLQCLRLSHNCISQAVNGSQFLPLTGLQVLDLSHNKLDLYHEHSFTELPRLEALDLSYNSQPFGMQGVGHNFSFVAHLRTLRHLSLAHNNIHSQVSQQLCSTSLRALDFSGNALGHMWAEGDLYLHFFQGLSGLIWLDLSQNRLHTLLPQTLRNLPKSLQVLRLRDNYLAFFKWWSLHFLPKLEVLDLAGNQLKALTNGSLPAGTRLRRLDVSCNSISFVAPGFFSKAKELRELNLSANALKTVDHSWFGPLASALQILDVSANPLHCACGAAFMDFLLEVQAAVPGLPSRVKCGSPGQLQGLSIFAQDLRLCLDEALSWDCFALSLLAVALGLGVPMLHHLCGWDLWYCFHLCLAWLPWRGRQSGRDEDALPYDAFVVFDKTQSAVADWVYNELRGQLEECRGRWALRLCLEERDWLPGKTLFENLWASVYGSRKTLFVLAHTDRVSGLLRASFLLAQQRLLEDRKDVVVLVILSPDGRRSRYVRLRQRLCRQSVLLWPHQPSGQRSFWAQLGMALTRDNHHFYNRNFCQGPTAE
In words: TLR9 inhibition reporter assay (HEK-Blue SEAP). The note with it: HEK-Blue cells overexpressing human TLR9, stimulated with ODN2006 5 nM, 22 hour incubation. Put shortly:
as §1

For the compound `Cc1cc2c(C3CCNCC3)n[nH]c2cc1-c1cc(C#N)c2ncnn2c1` [Example 84, 6-(5-methyl-3-(piperidin-4-yl)-1H-indazol-6-yl)-[1,2,4]triazolo[1,5-a]pyridine-8-carbonitrile], the half-inhibitory concentration (IC50) (commonly the concentration at which inhibition is half-maximal) came to 33.4 nM against human TLR7, 15.7 nM at human TLR8 and 5610 nM on human TLR9.
For `Cc1cc(-c2cc(C)c3ncnn3c2)cc2[nH]nc(C3CCCN(C4CCOCC4)C3)c12` (stereo not drawn) [Example 60, 8-methyl-6-(4-methyl-3-(1-(tetrahydro-2H-pyran-4-yl)piperidin-3-yl)-1H-indazol-6-yl)-[1,2,4]triazolo[1,5-a]pyridine] the same measures were 79.3 nM, 62.2 nM and 4250 nM.
Regarding `CCc1cc2c(C3CCN(CCC(F)(F)F)CC3)n[nH]c2cc1-c1cc(C)c2ncnn2c1` [Example 108, 6-(5-ethyl-3-(1-(3,3,3-trifluoropropyl)piperidin-4-yl)-1H-indazol-6-yl)-8-methyl-[1,2,4] triazolo[1,5-a]pyridine], the concentration for half-maximal inhibition (IC50) on human TLR7 worked out at 5.6 nM; against human TLR8 it was 0.2 nM; on human TLR9 it was 23500 nM.
For `Cc1cc(-c2cc(C)c3ncnn3c2)cc2[nH]nc(OC3CCN(C4CCOCC4)CC3)c12` [Example 178, 8-methyl-6-(4-methyl-3-((1-(tetrahydro-2H-pyran-4-yl)piperidin-4-yl)oxy)-1H-indazol-6-yl)-[1,2,4]triazolo[1,5-a]pyridine] the same measures were 6.1 nM, 0.5 nM and 1620 nM.
Regarding `Cc1cc(-c2cc3[nH]nc(C4CCC(N5CCC(S(C)(=O)=O)C5)CC4)c3cc2C(C)C)cn2ncnc12` (single isomer, unassigned) [Example 212, 6-(5-isopropyl-3-(4-(3-(methylsulfonyl)pyrrolidin-1-yl)cyclohexyl)-1H-indazol-6-yl)-8-methyl-[1,2,4]triazolo[1,5-a]pyridine], the half-maximal inhibitory concentration (IC50) on human TLR7 stood at 8.2 nM; against human TLR8, 0.36 nM; against human TLR9 it was 24100 nM.
In the case of `COc1cc(-c2cc3[nH]nc(C4CCN(C(=O)CN(C)C)CC4)c3cc2C(C)C)cn2ncnc12` [Example 117, 2-(dimethylamino)-1-(4-(5-isopropyl-6-(8-methoxy-[1,2,4]triazolo[1,5-a]pyridin-6-yl)-1H-indazol-3-yl)piperidin-1-yl)ethan-1-one], the half-inhibitory concentration (IC50) is 3.4 nM at human TLR7, 0.5 nM against human TLR8 and 11200 nM against human TLR9.
For “5-methyl-6-(8-methyl-[1,2,4]triazolo[1,5-a]pyridin-6-yl)-N-(piperidin-4-yl)-1H-indazol-3-amine [Example 203]” the same measures were 51.7 nM, 2.1 nM and 1420 nM.
Taken in the same sequence, the figures for `Cc1cc2c(C3CCC(N(C)C)CC3)n[nH]c2cc1-c1cc(C)c2ncnn2c1` (single isomer, unassigned) [Example 3, N,N-dimethyl-4-(5-methyl-6-(8-methyl-[1,2,4]triazolo[1,5-a]pyridin-6-yl)-1H-indazol-3-yl)cyclohexan-1-amine] were 10.2 nM, 0.4 nM and 1120 nM.
For `Cc1cc2c(C3CCCN(C(=O)CN(C)C)C3)n[nH]c2cc1-c1cc(C)c2ncnn2c1` (stereo not drawn) [Example 56, 2-(dimethylamino)-1-(3-(5-methyl-6-(8-methyl-[1,2,4]triazolo[1,5-a]pyridin-6-yl)-1H-indazol-3-yl)piperidin-1-yl)ethan-1-one] the same measures were 12.2 nM, 1.7 nM and 4940 nM.
`Cc1cc2c(C3CCC(N(C)C)CC3)n[nH]c2cc1-c1cc(C)c2ncnn2c1` (single isomer, unassigned) [Example 4, N,N-dimethyl-4-(5-methyl-6-(8-methyl-[1,2,4]triazolo[1,5-a]pyridin-6-yl)-1H-indazol-3-yl)cyclohexan-1-amine]: the IC50 against human TLR7 is 19.9 nM; at human TLR8 it was 0.7 nM; at human TLR9, 2820 nM.
For `Cc1cc2c(C3CCC(NC4COC4)CC3)n[nH]c2cc1-c1cc(C)c2ncnn2c1` (single isomer, unassigned) [Example 34, N-(4-(5-methyl-6-(8-methyl-[1,2,4]triazolo[1,5-a]pyridin-6-yl)-1H-indazol-3-yl)cyclohexyl)oxetan-3-amine] the same measures were 8.1 nM, 0.2 nM and 3950 nM.
For `CCc1cc2c(C3CCNCC3)n[nH]c2cc1-c1cc(C)c2ncnn2c1` [Example 82, 6-(5-ethyl-3-(piperidin-4-yl)-1H-indazol-6-yl)-8-methyl-[1,2,4]triazolo[1,5-a]pyridine] the same measures were 1.6 nM, 0.4 nM and 2200 nM.
